Reference: US20070049564A1 (Wyeth, priority 2005, published 2007)
Values after ≈ are worked out from the molar mass of the structure shown. Where two headings read alike, the source gives them in different places.

What was measured:
E. coli = experiment: Range of MIC for E. coli strains; details: for MIC: Escherichia coli
Staph. aureus Smith [1] = experiment: In vitro activity (MIC) against Staph. aureus Smith; type: cell-based; details: Staphylococcus aureus; Table 8
Staph. aureus Smith [2] = experiment: In vivo activity (oral, iv; ED50) against Staph. aureus Smith in mice
Experimental: Representative examples of compounds of Formula I were tested for the oral efficacy using S. aureus Smith in mice.

Staph. = experiment: Range of MIC for Staph. strains, including MRSA; details: for MIC: Staphylococcus aureus, MRSA
E. coli GC 4559 = experiment: MIC, broth microdilution
E. faecalis GC 4555 = experiment: MIC, broth microdilution
S. aureus GC 6466 = experiment: MIC, broth microdilution
Experimental: (§1) Antimicrobial susceptibility testing. The in vitro activities of the antibiotics are determined by the broth microdilution method as recommended by the National Committee for Clinical Laboratory Standards (NCCLS) (1). Mueller-Hinton II broth (MHBII)(BBL Cockeysville, Md.) is the medium employed in the testing procedures. Microtiter plates containing serial dilutions of each antimicrobial agent are inoculated with each organism to yield the appropriate density (10^5 CFU/ml) in a 100 μl final volume. The plates are incubated for 18-22 hours at 35° C. in ambient air. […] Standard Pharmacological Test Procedures
(§2) Presented in Tables I-XIII are representative compounds of Formula I which were evaluated against a panel of 40 selected gram-positive and gram-negative bacteria strains by pre-incubation in water, mouse serum or human serum. Representative compounds were first incubated in mouse serum for an hour prior to the in vitro testing against a panel of selected gram-positive and gram-negative bacteria strains. All compounds were also pre-incubated in water for an hour prior to testing as control. Representative compounds of Formula I were incubated in human serum prior to MIC determination.

E. coli GC 2272 = experiment: MIC, broth microdilution
S. aureus GC 2216 = experiment: MIC, broth microdilution
S. aureus GC 6467 = experiment: MIC, broth microdilution
E. faecalis GC 2242 = experiment: MIC, broth microdilution
E. faecium GC 2243 = experiment: MIC, broth microdilution
S. aureus GC 6335 = experiment: MIC, broth microdilution
S. aureus GC 1131 = experiment: MIC, broth microdilution
Salmonella spp. GC 235 = experiment: MIC, broth microdilution
Experimental: (§3) Antimicrobial susceptibility testing. The in vitro activities of the antibiotics are determined by the broth microdilution method as recommended by the National Committee for Clinical Laboratory Standards (NCCLS) (1). Mueller-Hinton II broth (MHBII)(BBL Cockeysville, Md.) is the medium employed in the testing procedures. Microtiter plates containing serial dilutions of each antimicrobial agent are inoculated with each organism to yield the appropriate density (10^5 CFU/ml) in a 100 μl final volume. The plates are incubated for 18-22 hours at 35° C. in ambient air.
Representative compounds were first incubated in mouse serum for an hour prior to the in vitro testing against a panel of selected gram-positive and gram-negative bacteria strains. All compounds were also pre-incubated in water for an hour prior to testing as control.

E. coli GC 2270 = experiment: MIC, broth microdilution
E. coli GC 6465 = experiment: MIC, broth microdilution
E. coli GC 2236 = experiment: MIC, broth microdilution
S. pneumoniae+ GC 4465 = experiment: MIC, broth microdilution
S. pyogenes GC 4563 = experiment: MIC, broth microdilution
E. faecium GC 4556 = experiment: MIC, broth microdilution
E. faecalis GC 2265 = experiment: MIC, broth microdilution
E. coli GC 4560 = experiment: MIC, broth microdilution
S. cholerasius GC 1355 = experiment: MIC, broth microdilution
Experimental: as §3, §2

S. aureus GC 1079 = experiment: MIC, broth microdilution
E. coli GC 2232 = experiment: MIC, broth microdilution
S. aureus GC 6469 = experiment: MIC, broth microdilution
E. coli GC 2234 = experiment: MIC, broth microdilution
c. albicans GC 3066 = experiment: MIC, broth microdilution
E. coli GC 2235 = experiment: MIC, broth microdilution
S. typhimurium GC 2172 = experiment: MIC, broth microdilution
E. coli GC 1073 = experiment: MIC, broth microdilution
E. coli GC 2203 = experiment: MIC, broth microdilution
Experimental: as §1, §2

E. faecalis GC 2267 = experiment: MIC, broth microdilution
S. epidermidis GC 4935 = experiment: MIC, broth microdilution
E. coli GC 3226 = experiment: MIC, broth microdilution
S. pneumoniae* GC 4465 = experiment: MIC, broth microdilution
Salmonella spp. GC 566 = experiment: MIC, broth microdilution
S. agalactiae GC 4564 = experiment: MIC, broth microdilution
E. coli GC 2233 = experiment: MIC, broth microdilution
S. aureus GC 4536 = experiment: MIC, broth microdilution
P. aeruginosa GC 2214 = experiment: MIC, broth microdilution
E. coli GC 2271 = experiment: MIC, broth microdilution
E. coli GC 2231 = experiment: MIC, broth microdilution
[3] = 20 h, read-out: Range of MIC, E. coli (Mouse Serum)
[4] = read-out: Range of MIC, E. coli (mouse serum)
[5] = Staphylococcus aureus, in Mus musculus, iv, read-out: ED50 SIV (Staph aureus Smith)
[6] = Staphylococcus aureus, in Mus musculus, po, read-out: ED50 SOD (Staph aureus Smith)
[7] = Staphylococcus aureus, in Mus musculus, po, read-out: ED50 Staph Smith SOD
[8] = iv, read-out: ED50 Staph Smith SIV
[9] = read-out: Range of MIC, Staph (Mouse Serum)
[10] = read-out: Range of MIC, Staph (Water)
[11] = read-out: Range of MIC, Staph. (mouse serum)
[12] = read-out: Range of MIC, Staph. (water)

CCCN(CC(=O)Nc1cc(N(C)C)c2c(c1O)C(=O)C1=C(O)[C@]3(O)C(=O)C(C(N)=O)=C(O)[C@@H](N(C)C)C3CC1C2)C(=O)OCOC(=O)C1CCCCC1 (stereo partly drawn) [Example 33, ({[(2-{[(7S,10aS)-9-(aminocarbonyl)-4,7-bis(dimethylamino)-1,8,10a,11-tetrahydroxy-10,12-dioxo-5,5a,6,6a,7,10,10a,12-octahydrotetracen-2-yl]amino}-2-oxoethyl)(propyl)amino]carbonyl}oxy)methyl cyclohexanecarboxylate]
MIC (E. coli; [3]): 0.5 to 2 µg/mL (≈ 0.662 to 2.65 µM)
MIC (E. coli; [4]): 0.5 to 2 µg/mL (≈ 0.662 to 2.65 µM)
MIC (Staph. aureus Smith [1]): 0.12 µg/mL (≈ 0.159 µM)
ED50 (Staph. aureus Smith [2]; [5]): 0.48 mg/kg
ED50 (Staph. aureus Smith [2]; [6]): 4.91 mg/kg
ED50 (Staph. aureus Smith [2]; [7]): 4.91 mg/kg
ED50 (Staph. aureus Smith [2]; [8]): 0.45 mg/kg
MIC (Staph.; [9]): 0.12 to 2 µg/mL (≈ 0.159 to 2.65 µM)
MIC (Staph.; [10]): 0.12 to 2 µg/mL (≈ 0.159 to 2.65 µM)
MIC (Staph.; [11]): 0.12 to 2 µg/mL (≈ 0.159 to 2.65 µM)
MIC (Staph.; [12]): 0.12 to 2 µg/mL (≈ 0.159 to 2.65 µM)

CCCN(CC(=O)Nc1cc(N(C)C)c2c(c1O)C(=O)C1=C(O)[C@]3(O)C(=O)C(C(N)=O)=C(O)[C@@H](N(C)C)[C@@H]3C[C@@H]1C2)C(=O)OCOC(=O)CC(C)(C)C [Example 35, ({[(2-{[(5aR,6aS,7S,10aS)-9-(aminocarbonyl)-4,7-bis(dimethylamino)-1,8,10a,11-tetrahydroxy-10,12-dioxo-5,5a,6,6a,7,10,10a,12-octahydrotetracen-2-yl]amino}-2-oxoethyl)(propyl)amino]carbonyl}oxy)methyl 3,3-dimethylbutanoate]
MIC (E. coli; [3]): 4 to 8 µg/mL (≈ 5.38 to 10.8 µM)
MIC (E. coli; read-out: Range of MIC, E. coli (Water)): 8 to 64 µg/mL (≈ 10.8 to 86 µM)
MIC (E. coli; [4]): 4 to 8 µg/mL (≈ 5.38 to 10.8 µM)
MIC (E. coli; read-out: Range of MIC, E. coli (water)): 8 to 64 µg/mL (≈ 10.8 to 86 µM)
MIC (Staph. aureus Smith [1]): 4 µg/mL (≈ 5.38 µM)
ED50 (Staph. aureus Smith [2]; [5]): 0.43 mg/kg
ED50 (Staph. aureus Smith [2]; [6]): 3.5 mg/kg
ED50 (Staph. aureus Smith [2]; [7]): 3.5 mg/kg
ED50 (Staph. aureus Smith [2]; [8]): 0.43 mg/kg
MIC (Staph.; [9]): 2 to 4 µg/mL (≈ 2.69 to 5.38 µM)
MIC (Staph.; [10]): 2 to 4 µg/mL (≈ 2.69 to 5.38 µM)
MIC (Staph.; [11]): 2 to 4 µg/mL (≈ 2.69 to 5.38 µM)
MIC (Staph.; [12]): 2 to 4 µg/mL (≈ 2.69 to 5.38 µM)

CCCN(CC(=O)Nc1cc(N(C)C)c2c(c1O)C(=O)C1=C(O)[C@@]3(O)C(=O)C(C(N)=O)=C(O)[C@@H](N(C)C)C3CC1C2)C(=O)OCc1oc(=O)oc1C (stereo partly drawn) [Example 108, (5-methyl-2-oxo-1,3-dioxol-4-yl)methyl 2-{[(7S,10aR)-9-(aminocarbonyl)-4,7-bis(dimethylamino)-1,8,10a,11-tetrahydroxy-10,12-dioxo-5,5a,6,6a,7,10,10a,12-octahydrotetracen-2-yl]amino}-2-oxoethyl(propyl)carbamate]
MIC (E. coli GC 4559; pre-incubation in mouse serum): 0.50 UG/ML
MIC (E. coli GC 4559; pre-incubation in water): 1 UG/ML
Range of MIC, E. coli (Mouse Serum) (E. coli; Mouse Serum, Table 1): 0.5 to 2 µg/mL
Range of MIC, E. coli (Water) (E. coli; Water, Table 1): 0.5 to 4 µg/mL
MIC (E. faecalis GC 4555; pre-incubation in mouse serum): 0.50 UG/ML
MIC (E. faecalis GC 4555; pre-incubation in water): 0.50 UG/ML
MIC (S. aureus GC 6466; pre-incubation in mouse serum): 0.50 UG/ML
MIC (S. aureus GC 6466; pre-incubation in water): 1 UG/ML
MIC (E. coli GC 2272; pre-incubation in mouse serum): 0.25 UG/ML
MIC (E. coli GC 2272; pre-incubation in water): 0.50 UG/ML
MIC (S. aureus GC 2216; pre-incubation in mouse serum): 0.50 UG/ML
MIC (S. aureus GC 2216; pre-incubation in water): 1 UG/ML
MIC (S. aureus GC 6467; pre-incubation in mouse serum): 2 UG/ML
MIC (S. aureus GC 6467; pre-incubation in water): 8 UG/ML
MIC (E. faecalis GC 2242; pre-incubation in mouse serum): 0.50 UG/ML
MIC (E. faecalis GC 2242; pre-incubation in water): 1 UG/ML
MIC (E. faecium GC 2243; pre-incubation in mouse serum): 0.50 UG/ML
MIC (E. faecium GC 2243; pre-incubation in water): 0.50 UG/ML
MIC (S. aureus GC 6335; pre-incubation in mouse serum): 1 UG/ML
MIC (S. aureus GC 6335; pre-incubation in water): 2 UG/ML
MIC (S. aureus GC 1131; pre-incubation in mouse serum): 0.25 UG/ML
MIC (S. aureus GC 1131; pre-incubation in water): 0.50 UG/ML
MIC (Salmonella spp. GC 235; pre-incubation in mouse serum): 1 UG/ML
MIC (Salmonella spp. GC 235; pre-incubation in water): 4 UG/ML
MIC (E. coli GC 2270; pre-incubation in mouse serum): 0.50 UG/ML
MIC (E. coli GC 2270; pre-incubation in water): 1 UG/ML
ED50 Staph Smith SIV (Staph. aureus Smith [2]; single intravenous dose (SIV)): >2 mg/kg
ED50 Staph Smith SOD (Staph. aureus Smith [2]; single oral dose (SOD)): >32 mg/kg
MIC (E. coli GC 6465; pre-incubation in mouse serum): 8 UG/ML
MIC (E. coli GC 6465; pre-incubation in water): 64 UG/ML
MIC (E. coli GC 2236; pre-incubation in mouse serum): 0.50 UG/ML
MIC (E. coli GC 2236; pre-incubation in water): 2 UG/ML
MIC (S. pneumoniae+ GC 4465; pre-incubation in mouse serum): 1 UG/ML
MIC (S. pneumoniae+ GC 4465; pre-incubation in water): 2 UG/ML
MIC (S. pyogenes GC 4563; pre-incubation in mouse serum): 0.12 UG/ML
MIC (S. pyogenes GC 4563; pre-incubation in water): 0.12 UG/ML
MIC (E. faecium GC 4556; pre-incubation in mouse serum): 0.50 UG/ML
MIC (E. faecium GC 4556; pre-incubation in water): 1 UG/ML
MIC (E. faecalis GC 2265; pre-incubation in mouse serum): 1 UG/ML
MIC (E. faecalis GC 2265; pre-incubation in water): 2 UG/ML
MIC (E. coli GC 4560; pre-incubation in mouse serum): 0.12 UG/ML
MIC (E. coli GC 4560; pre-incubation in water): 0.25 UG/ML
MIC (S. cholerasius GC 1355; pre-incubation in mouse serum): 32 UG/ML
MIC (S. cholerasius GC 1355; pre-incubation in water): 64 UG/ML
MIC (S. aureus GC 1079; pre-incubation in mouse serum): 2 UG/ML
MIC (S. aureus GC 1079; pre-incubation in water): 4 UG/ML
MIC (E. coli GC 2232; pre-incubation in mouse serum): 1 UG/ML
MIC (E. coli GC 2232; pre-incubation in water): 2 UG/ML
MIC (S. aureus GC 6469; pre-incubation in mouse serum): 0.25 UG/ML
MIC (S. aureus GC 6469; pre-incubation in water): 1 UG/ML
MIC (E. coli GC 2234; pre-incubation in mouse serum): 0.50 UG/ML
MIC (E. coli GC 2234; pre-incubation in water): 2 UG/ML
MIC (c. albicans GC 3066; pre-incubation in mouse serum): >64 UG/ML
MIC (c. albicans GC 3066; pre-incubation in water): >64 UG/ML
MIC (E. coli GC 2235; pre-incubation in mouse serum): 0.50 UG/ML
MIC (E. coli GC 2235; pre-incubation in water): 1 UG/ML
MIC (S. typhimurium GC 2172; pre-incubation in mouse serum): 4 UG/ML
MIC (S. typhimurium GC 2172; pre-incubation in water): 32 UG/ML
MIC (E. coli GC 1073; pre-incubation in mouse serum): 0.50 UG/ML
MIC (E. coli GC 1073; pre-incubation in water): 2 UG/ML
MIC (E. coli GC 2203; pre-incubation in mouse serum): 0.50 UG/ML
MIC (E. coli GC 2203; pre-incubation in water): 1 UG/ML
MIC (E. faecalis GC 2267; pre-incubation in mouse serum): 1 UG/ML
MIC (E. faecalis GC 2267; pre-incubation in water): 2 UG/ML
MIC (S. epidermidis GC 4935; pre-incubation in mouse serum): 1 UG/ML
MIC (S. epidermidis GC 4935; pre-incubation in water): 2 UG/ML
MIC (E. coli GC 3226; pre-incubation in mouse serum): 0.50 UG/ML
MIC (E. coli GC 3226; pre-incubation in water): 1 UG/ML
MIC (S. pneumoniae* GC 4465; pre-incubation in mouse serum): 0.12 UG/ML
MIC (S. pneumoniae* GC 4465; pre-incubation in water): 0.12 UG/ML
MIC (Salmonella spp. GC 566; pre-incubation in mouse serum): 1 UG/ML
MIC (Salmonella spp. GC 566; pre-incubation in water): 8 UG/ML
MIC (S. agalactiae GC 4564; pre-incubation in mouse serum): 0.12 UG/ML
MIC (S. agalactiae GC 4564; pre-incubation in water): 0.12 UG/ML
MIC (E. coli GC 2233; pre-incubation in mouse serum): 0.50 UG/ML
MIC (E. coli GC 2233; pre-incubation in water): 1 UG/ML
MIC (S. aureus GC 4536; pre-incubation in mouse serum): 0.50 UG/ML
MIC (S. aureus GC 4536; pre-incubation in water): 1 UG/ML
MIC (P. aeruginosa GC 2214; pre-incubation in mouse serum): 16 UG/ML
MIC (P. aeruginosa GC 2214; pre-incubation in water): 32 UG/ML
MIC (E. coli GC 2271; pre-incubation in mouse serum): 0.50 UG/ML
MIC (E. coli GC 2271; pre-incubation in water): 0.50 UG/ML
Range of MIC, Staph (Mouse Serum) (Staph.; Mouse Serum, including MRSA, Table 1): 0.25 to 2 µg/mL
Range of MIC, Staph (Water) (Staph.; Water, including MRSA, Table 1): 1 to 8 µg/mL
MIC (E. coli GC 2231; pre-incubation in mouse serum): 2 UG/ML
MIC (E. coli GC 2231; pre-incubation in water): 4 UG/ML
